Results taken from patent US20110288014A1, “METHODS AND COMPOSITIONS FOR DIABETES TREATMENT AND PREVENTION” (TUM Technische Universitat Munchen, priority 2008, published 2011).
Entries after “also recorded” stand apart in the source; their conditions may differ.

Tests used:
[1] = tested on: mouse adipocytes (cell line 3T3-L1); assay: 2-deoxyglucose (2-DG) uptake, resorufin assay; type: cell-based
Procedure: Mouse adipocytes (cell line 3T3-L1) as well as mouse myotubes (cell line C2C12) were cultivated under standard conditions and treated either with regular cell culture medium or insulin for 4 hours. Afterwards, cells were exposed to a combination of 2-deoxyglucose (2-DG) and the respective sample, either N-MP, coffee beverage (content of NMP in the coffee beverage: 26.7 mg/L) or a combination of both, for 2 hours. Then, cells were harvested and the 2-DG uptake was analyzed photometrically using the resorufin assay (Yamamoto, N.; Sato, T.; Kawasaki, K.; Murosaki, S.; Yamamoto, Y. A nonradioisotope, enzymatic assay for 2-deoxyglucose uptake in L6 skeletal muscle cells cultured in a 96-well microplate. Analytical Biochemistry 2006, 351, 139-145).

[2] = tested on: mouse adipocytes (cell line 3T3-L1); assay: 2-deoxyglucose (2-DG) uptake, resorufin assay; type: cell-based; conditions: for 2-DG uptake: first ten minutes after incubation, nearly independent of concentration
[3] = sample alone, no insulin cotreatment, compared to control cells

Molecule | 2-deoxyglucose uptake in adipocytes [1, 3] | 2-deoxyglucose uptake in adipocytes ([1]; in combination with insulin) | also measured
CC[n+]1ccccc1 [N-ethylpyridinium iodide] | good results | – | –
Cc1cc[n+](C)cc1 [N-4-Methylpicolinium] | substantial increase | substantial increase | 2-DG uptake ([1]; alone or in combination with insulin, independently from the concentration used (FIGS. 10 and 11)): higher than 100%; 2-DG uptake ([1]; in some cases (FIG. 11, concurrent use of insulin)): > 200%
N-methylpyridinium [N-MP] | increased; also recorded: best results and effects | significantly enhance the effect of insulin | effectiveness of insulin on 2-deoxyglucose uptake ([1]; FIG. 5, in combination with coffee beverage and insulin): greatly enhance the effectiveness of insulin; 2-deoxyglucose uptake in adipocytes ([1]; sample alone, no insulin cotreatment, compared to control cells, listed as N-Methylpyridinium): enhance the uptake of 2-deoxyglucose in mouse adipocytes similarly insulin; 2-DG uptake by mouse adipocytes ([2]; FIG. 2, in combination with insulin, treatment times 1 min and 10 min, compared with insulin alone): statistically higher extent than insulin alone
Cc1ccc[n+](C)c1 [N-3-Methylpicolinium iodide] | substantial improvement | – | –
CCCCCCCCCCCCCCCC[n+]1ccccc1 [N-cetylpyridinium iodide] | excellent effects | excellent effects | 2-DG uptake ([2]; alone (FIG. 16 left panel)): excellent results; 2-DG uptake ([2]; co-treatment with insulin (FIG. 16 right panel)): excellent results
C[n+]1ccccc1.[I-] [N-methylpyridinium iodide] | – | improved | –
